From the NIST ThermoML archive (doi:10.1016/j.fluid.2016.01.001)
± gives the expanded uncertainty stated by the source.

Settings: Capillary rise

CCCC [butane]
Settings | surface tension liquid-gas [mN/m]
278.15 K | 14.57 ± 0.06
283.15 K | 13.96 ± 0.06
288.15 K | 13.37 ± 0.06
293.15 K | 12.79 ± 0.06
298.15 K | 12.17 ± 0.06
303.15 K | 11.53 ± 0.06
308.15 K | 10.94 ± 0.06
313.15 K | 10.35 ± 0.06
318.15 K | 9.851 ± 0.058
323.15 K | 9.286 ± 0.057
328.15 K | 8.705 ± 0.057
333.15 K | 8.14 ± 0.056
338.15 K | 7.593 ± 0.056
343.15 K | 7.043 ± 0.055
348.15 K | 6.516 ± 0.055
353.15 K | 5.991 ± 0.054
358.15 K | 5.479 ± 0.054
363.15 K | 4.981 ± 0.053
368.15 K | 4.483 ± 0.053
373.15 K | 4.003 ± 0.053
378.15 K | 3.515 ± 0.052
383.15 K | 3.049 ± 0.052
388.15 K | 2.578 ± 0.051
393.15 K | 2.091 ± 0.051
398.15 K | 1.679 ± 0.051
403.15 K | 1.29 ± 0.05
408.15 K | 0.923 ± 0.05
413.15 K | 0.583 ± 0.088
417.15 K | 0.341 ± 0.088
419.75 K | 0.186 ± 0.088
420.35 K | 0.157
420.85 K | 0.129
421.08 K | 0.118
421.48 K | 0.1

COC [dimethyl ether]
Settings | surface tension liquid-gas [mN/m]
214 K | 24.45 ± 0.07
220 K | 23.51 ± 0.07
225 K | 22.69 ± 0.07
230 K | 21.87 ± 0.07
235 K | 21.15 ± 0.07
240 K | 20.43 ± 0.07
245 K | 19.7 ± 0.07
250 K | 18.92 ± 0.06
255 K | 18.15 ± 0.06
260 K | 17.39 ± 0.06
265 K | 16.62 ± 0.06
270 K | 15.93 ± 0.06
275 K | 15.19 ± 0.06
280 K | 14.47 ± 0.06
285 K | 13.73 ± 0.06
290 K | 13.02 ± 0.06
295 K | 12.28 ± 0.06
300 K | 11.57 ± 0.06
305 K | 10.85 ± 0.06
315 K | 9.497 ± 0.055
320 K | 8.813 ± 0.055
325 K | 8.137 ± 0.054
330 K | 7.476 ± 0.053
335 K | 6.814 ± 0.053
340 K | 6.164 ± 0.052
345 K | 5.528 ± 0.052
350 K | 4.899 ± 0.051
355 K | 4.307 ± 0.05
360 K | 3.707 ± 0.05
365 K | 3.142 ± 0.049
370 K | 2.575 ± 0.049
375 K | 2.042 ± 0.048
380 K | 1.516 ± 0.048
385 K | 1.054 ± 0.048
390 K | 0.614 ± 0.047
